Test results reported in US20230202973A1, “BARNESIN A, DERIVATIVES AND USES THEREOF” (Leibniz-Institut Für Naturstoff-Forschung Und …, priority 2018, published 2023).

Type: in vitro ADME
Settings: 0 min, pH 7.4
Procedure: The liver is the main organ of drug metabolism in the body. Subcellular fractions such as liver microsomes are useful in vitro models of hepatic clearance as they contain many of the drug metabolising enzymes found in the liver. Liver microsomes are subcellular fractions which contain membrane bound drug metabolising enzymes. The microsomes are incubated with the test compound at 37° C. in the presence of the co-factors, which initiates the reaction. The reaction is terminated by the addition of organic solvents containing internal standard. Following centrifugation, the supernatant is analysed on the LC-MS/MS. The disappearance of test compound is monitored over certain time period. Here, a microsome stability assay was used to investigate the metabolism of the compounds; using this assay it is possible to measure in vitro the intrinsic clearance or to identify metabolites formed. For a standard assay the following solutions were used: 360 μL Microsomal solution (1.1 mg/mL in phosphate buffer), 360 μL NADP-regeneration mix (containing NADP (10 mM), MgCl2 (50 mM), glucose-6-phosphate (50 mM), glucose-6-phosphate dehydrogenase (50 U/ml)) and 40 μL phosphate buffer (100 mM, pH 7.4). […] 5 uL of each sample was injected to a UPLC/HRMS system and the peak areas of the extracted ion chromatograms were determined

- Area rel. [%], PC: 100.0%
SMILES: O=C(O)Cc1ccccc1Nc1c(Cl)cccc1Cl [Diclo, Diclofenac]
